Key:
[1] = biological target: BB7 (RNA-dependent RNA polymerase hepatitis C virus protein sequence derived from HCV replicon) (Hepatitis C virus genotype 1b, UniProt Q9WMX2); assay: Hepatitis C polymerase inhibition, BB7 sequence; type: biochemical; settings: Table 1B
[2] = biological target: T1, NS5B from the BK strain (genotype 1b) (Hepatitis C virus genotype 1b, UniProt P26663); assay: Hepatitis C polymerase inhibition, NS5B BK strain, 33P-GTP filter assay; type: biochemical; settings: Table 1B; NS5B BK strain; read-out: BK IC50
T1 construct: NS5B from the BK strain (genotype 1b) is expressed in E. coli as a protein in which the 21 C-terminal amino acids are replaced; made in house; host or cells: E. coli
T1 sequence (P26663 2420-2989): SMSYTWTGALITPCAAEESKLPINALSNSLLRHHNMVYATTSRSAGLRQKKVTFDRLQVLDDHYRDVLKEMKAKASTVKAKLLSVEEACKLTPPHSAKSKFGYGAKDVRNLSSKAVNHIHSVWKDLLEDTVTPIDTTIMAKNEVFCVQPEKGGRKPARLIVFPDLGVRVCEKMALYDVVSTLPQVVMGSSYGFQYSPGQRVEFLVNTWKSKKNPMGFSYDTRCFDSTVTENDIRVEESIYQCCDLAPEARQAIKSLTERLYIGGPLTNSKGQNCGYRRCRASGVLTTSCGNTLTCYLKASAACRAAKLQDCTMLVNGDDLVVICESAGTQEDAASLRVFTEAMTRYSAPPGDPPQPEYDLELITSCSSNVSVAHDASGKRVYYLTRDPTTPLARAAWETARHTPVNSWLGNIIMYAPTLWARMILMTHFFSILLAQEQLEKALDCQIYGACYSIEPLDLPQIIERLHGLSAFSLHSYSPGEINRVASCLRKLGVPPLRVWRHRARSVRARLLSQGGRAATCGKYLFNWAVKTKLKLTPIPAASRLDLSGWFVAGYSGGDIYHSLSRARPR
Procedure, shortened: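 Radiolabelled RNA synthesis was measured by filter capture and scintillation counting after EDTA stop. His-tagged, C-terminally truncated (Δ21) genotype 1b BK NS5B from E. coli, pre-exposed to compound for 15 min, copied a self-primed RNA template (~3 nM) with α-[33P]-GTP for 2 h at room temperature.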

Sequence of BB7 (RNA-dependent RNA polymerase hepatitis C virus protein sequence derived from HCV replicon) (Q9WMX2 2420-3010): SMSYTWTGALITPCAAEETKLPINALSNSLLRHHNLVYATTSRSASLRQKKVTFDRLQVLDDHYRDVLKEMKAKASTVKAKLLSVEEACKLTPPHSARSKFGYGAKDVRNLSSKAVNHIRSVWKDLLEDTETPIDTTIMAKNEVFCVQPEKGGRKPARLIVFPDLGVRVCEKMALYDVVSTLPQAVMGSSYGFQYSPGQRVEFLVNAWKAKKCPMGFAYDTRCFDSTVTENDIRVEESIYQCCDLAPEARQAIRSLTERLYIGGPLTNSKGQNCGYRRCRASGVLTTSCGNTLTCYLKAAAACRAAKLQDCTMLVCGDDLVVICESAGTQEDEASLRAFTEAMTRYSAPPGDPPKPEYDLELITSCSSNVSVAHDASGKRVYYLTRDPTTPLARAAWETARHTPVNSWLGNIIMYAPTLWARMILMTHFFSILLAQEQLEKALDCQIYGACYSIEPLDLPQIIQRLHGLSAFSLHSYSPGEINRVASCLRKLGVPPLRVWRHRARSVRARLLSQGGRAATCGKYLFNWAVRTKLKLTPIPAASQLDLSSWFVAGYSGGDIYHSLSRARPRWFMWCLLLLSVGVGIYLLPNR

Row | Molecule | IC50 [1] | IC50 [2]
1 | CC[C@H](C)[C@@]1(CC(=O)O)OCCc2c1[nH]c1c(F)ccc(C#N)c21 (racemic) [Example 313, (1R*,10S*)-[5-cyano-8-fluoro-1-(1-methylpropyl)-1,3,4,9-tetrahydropyrano[3,4-b]indol-1-yl]acetic acid] | 1.5 µM | 1.8 µM
2 | CCC[C@@]1(C(=O)O)OCCc2c1[nH]c1c(F)ccc(C#N)c21 [Example 343, (1R)-(5-cyano-8-fluoro-1-propyl-1,3,4,9-tetrahydropyrano[3,4-b]-indol 1-yl)carboxylic acid] | > 30 µM | > 30 µM
3 | [5-cyano-1-(1-ethylethyl)-8-methyl-1,3,4,9-tetrahydropyrano[3,4-b]indol-1-yl]acetic acid [Example 294] | > 30 µM | > 30 µM
4 | CCCC1(C(=O)O)OCCc2c1[nH]c1c(C)ccc(C#N)c21 (centres unmarked) [Example 334, (5-cyano-8-methyl-1-propyl-1,3,4,9-tetrahydropyrano[3,4-b]indol-1-yl)carboxylic acid] | 5 µM | 3 µM
5 | C=CCCC1(CC(=O)O)OCCc2c1[nH]c1c(Cl)ccc(Cl)c21 (centres unmarked) [Example 251, [5,8-dichloro-1-(3-butenyl)-1,3,4,9-tetrahydropyrano[3,4-b]indol-1-yl]acetic acid] | 3.5 µM | 1.7 µM
6 | Cc1ccc(C#N)c2c3c([nH]c12)C(CCC(F)(F)F)(CC(=O)O)OCC3 (centres unmarked) [Example 280, [5-cyano-8-methyl-1-(3,3,3-trifluoropropyl)-1,3,4,9-tetrahydropyrano[3,4-b]indol-1-yl]acetic acid] | 2 µM | 0.8 µM
7 | COCCC1(CC(=O)O)OCCc2c1[nH]c1c(F)ccc(C#N)c21 (centres unmarked) [Example 304, [5-cyano-8-fluoro-1-(2-methoxyethyl)-1,3,4,9-tetrahydropyrano[3,4-b]indol-1-yl]acetic acid] | > 30 µM | > 30 µM
8 | CCCC1(CC(=O)O)OCCc2c1[nH]c1c(C)c(OC(C)C)cc(C#N)c21 (centres unmarked) [Example 364, (5-cyano-7-isopropoxy-8-methyl-1-propyl-1,3,4,9-tetrahydro-pyrano[3,4-b]indol-1-yl)-acetic acid] | 0.22 µM | 0.48 µM
9 | CCCC1(CC(=O)O)OCCc2c1[nH]c1c(C(C)C)ccc(C#N)c21 (centres unmarked) [Example 297, [5-cyano-8-(1-methylethyl)-1-propyl-1,3,4,9-tetrahydropyrano[3,4-b]indol-1-yl]acetic acid] | 2.8 µM | 1.8 µM
10 | CCCC1(C(=O)O)OCCc2c1[nH]c1c(Cl)ccc(Cl)c21 (centres unmarked) [Example 329, (5,8-dichloro-1-propyl-1,3,4,9-tetrahydropyrano[3,4-b]indol-1-yl)carboxylic acid] | 1.5 µM | 0.6 µM
11 | N#Cc1ccc(F)c2[nH]c3c(c12)CCOC3(CC(=O)O)C1CCC1 (centres unmarked) [Example 307, (5-cyano-1-cyclobutyl-8-fluoro-1,3,4,9-tetrahydropyrano[3,4-b]indol-1-yl)acetic acid] | 9.6 µM | 5.8 µM
12 | O=C(O)CC1(C2CCCCC2)OCCc2c1[nH]c1c(Cl)ccc(Cl)c21 (centres unmarked) [Example 255, (5,8-dichloro-1-cyclohexyl-1,3,4,9-tetrahydropyrano[3,4-b]indol-1-yl)acetic acid] | 15 µM | > 30 µM
13 | CCCC1(CC(=O)O)OCCc2c1[nH]c1c(C(F)(F)F)ccc(C(F)(F)F)c21 (centres unmarked) [Example 271, [5,8-bis(trifluoromethyl)-1-propyl-1,3,4,9-tetrahydropyrano[3,4-b]indol-1-yl]acetic acid] | 3.5 µM | 2.7 µM
14 | CCCC1(CC(=O)O)OCCc2c1[nH]c1c(CC)ccc(C#N)c21 (centres unmarked) [Example 295, (5-cyano-8-ethyl-1-propyl-1,3,4,9-tetrahydropyrano[3,4-b]indol-1-yl)acetic acid] | 3.1 µM | 3.6 µM
15 | CCCC1(CC(=O)O)OCCc2c1[nH]c1c(C)ccc(Cl)c21 (centres unmarked) [Example 260, (5-chloro-8-methyl-1-propyl-1,3,4,9-tetrahydropyrano[3,4-b]indol-1-yl)acetic acid] | 1.2 µM | 0.4 µM
16 | CCCCC1(CC(=O)O)OCCc2c1[nH]c1c(C)ccc(C(F)(F)F)c21 (centres unmarked) [Example 273, (8-methyl-1-butyl-5-trifluoromethyl-1,3,4,9-tetrahydropyrano[3,4-b]indol-1-yl)acetic acid] | 6.5 µM | 1.4 µM
17 | CCOCC1(CC(=O)O)OCCc2c1[nH]c1c(Cl)ccc(C(F)(F)F)c21 (centres unmarked) [Example 266, (8-chloro-1-ethoxymethyl-5-trifluoromethyl-1,3,4,9-tetrahydropyrano[3,4-b]indol-1-yl)acetic acid] | 17 µM | 14 µM

Row | Molecule | IC50 [1] | IC50 [2]
18 | CCCCC1(C(=O)O)OCCc2c1[nH]c1c(F)ccc(C#N)c21 (centres unmarked) [Example 345, (1-butyl-5-cyano-8-fluoro-1,3,4,9-tetrahydropyrano[3,4-b]indol-1-yl)carboxylic acid] | 6.2 µM | 3.4 µM
19 | CCCOc1cc(C#N)c2c3c([nH]c2c1C)C(CCC)(CC(=O)O)OCC3 (centres unmarked) [Example 359, (5-cyano-8-methyl-7-propoxy-1-propyl-1,3,4,9-tetrahydro-pyrano[3,4-b]indol-1-yl)-acetic acid] | 0.07 µM | 0.07 µM
20 | CC[C@H](C)C1(CC(=O)O)OCCc2c1[nH]c1c(C#N)ccc(C(F)(F)F)c21 (mixture of isomers) [Example 279, (1R*,10S)-[8-cyano-1-(1-methylpropyl)-5-trifluoromethyl-1,3,4,9-tetrahydropyrano[3,4-b]indol-1-yl]acetic acid] | 2.4 µM | 2 µM
21 | Cc1cc(F)c(C#N)c2c3c([nH]c12)C(CC(=O)O)(C1CCC1)OCC3 (centres unmarked) [Example 317, (5-cyano-1-cyclobutyl-6-fluoro-8-methyl-1,3,4,9-tetrahydropyrano[3,4-b]indol-1-yl)acetic acid] | 0.9 µM | 0.6 µM
22 | Cc1ccc(C#N)c2c3c([nH]c12)C(C(=O)O)(C1CCC1)OCC3 (centres unmarked) [Example 338, (5-cyano-1-cyclobutyl-8-methyl-1,3,4,9-tetrahydropyrano[3,4-b]indol-1-yl)carboxylic acid] | 3.9 µM | 3.3 µM
23 | O=C(O)CC1(C2CC2)OCCc2c1[nH]c1c(Cl)ccc(Cl)c21 (centres unmarked) [Example 252, (5,8-dichloro-1-cyclopropyl-1,3,4,9-tetrahydropyrano[3,4-b]indol-1-yl)acetic acid] | 19 µM | 7.3 µM
24 | CCSCC1(CC(=O)O)OCCc2c1[nH]c1c(Cl)ccc(Cl)c21 (centres unmarked) [Example 250, (5,8-dichloro-1-ethylthiomethyl-1,3,4,9-tetrahydropyrano[3,4-b]indol-1-yl)acetic acid] | 3.9 µM | 3.7 µM
25 | CCC(C)C1(CC(=O)O)OCCc2c1[nH]c1c(C)ccc(C#N)c21 (racemic) [Example 291, (1R*,10S)-[5-cyano-8-methyl-1-(1-methylpropyl)-1,3,4,9-tetrahydropyrano[3,4-b]indol-1-yl]acetic acid] | 0.5 µM | 0.23 µM
26 | N#Cc1ccc(F)c2[nH]c3c(c12)CCOC3(CC(=O)O)C1CC1 (centres unmarked) [Example 306, (5-cyano-1-cyclopropyl-8-fluoro-1,3,4,9-tetrahydropyrano[3,4-b]indol-1-yl)acetic acid] | > 30 µM | > 30 µM
27 | CC[C@H](C)[C@@]1(CC(=O)O)OCCc2c1[nH]c1c(C)cc(F)c(C#N)c21 [Example 319, (1R,10S)-[5-cyano-6-fluoro-8-methyl-1-(1-methylpropyl)-1,3,4,9-tetrahydropyrano[3,4-b]indol-1-yl]acetic acid] | 0.08 µM | 0.06 µM
28 | CCCC1(CC(=O)O)OCCc2c1[nH]c1c(C)c(OCCC(C)(C)C)cc(C#N)c21 (centres unmarked) [Example 366, [5-cyano-7-(3,3-dimethyl-butoxy)-8-methyl-1-propy-1,3,4,9-tetrahydro-pyrano[3,4-b]indol-1-yl]-acetic acid] | 0.55 µM | 1.7 µM
29 | O=C(O)CC1(C2CCC2)OCCc2c1[nH]c1c(F)ccc(C(F)(F)F)c21 (centres unmarked) [Example 269, (1-cyclobutyl-8-fluoro-5-trifluoromethyl-1,3,4,9-tetrahydropyrano[3,4-b]indol-1-yl)acetic acid] | 9.4 µM | 9.4 µM
30 | CSCC1(CC(=O)O)OCCc2c1[nH]c1c(Cl)ccc(Cl)c21 (centres unmarked) [Example 249, (5,8-dichloro-1-methylthiomethyl-1,3,4,9-tetrahydropyrano[3,4-b]indol-1-yl)acetic acid] | 12 µM | 7 µM
31 | CCCC1(C(=O)O)OCCc2c1[nH]c1c(F)ccc(C#N)c21 (centres unmarked) [Example 342, (5-cyano-8-fluoro-1-propyl-1,3,4,9-tetrahydropyrano[3,4-b]indol-1-yl)carboxylic acid] | 10 µM | 1.7 µM
32 | CCCC1(C(=O)O)OCCc2c1[nH]c1c(C)ccc(Cl)c21 (centres unmarked) [Example 330, (5-chloro-8-methyl-1-propyl-1,3,4,9-tetrahydropyrano[3,4-b]indol-1-yl)carboxylic acid] | 8.4 µM | 1.6 µM
33 | CCCC1(CC(=O)O)OCCc2c1[nH]c1c(C#N)ccc(C(F)(F)F)c21 (centres unmarked) [Example 276, (8-cyano-1-propyl-5-trifluoromethyl-1,3,4,9-tetrahydropyrano[3,4-b]indol-1-yl)acetic acid] | 1.7 µM | 1.3 µM
34 | COCC1(CC(=O)O)OCCc2c1[nH]c1c(C)ccc(C#N)c21 (centres unmarked) [Example 281, (5-cyano-1-methoxymethyl-8-methyl-1,3,4,9-tetrahydropyrano[3,4-b]indol-1-yl)acetic acid] | > 30 µM | > 30 µM

— patent US7217730B2, “Method for the use of pyranoindole derivatives to treat infection with Hepatitis C virus” (Wyeth, priority 2002, dated 2007)
